Where a name gives a salt, the structure may show the parent alone.

One series has as its system patients having migraine. The experiment in a line: Multi-centric double blind clinical studies (placebo, flunarizine, internal crossover). It is filed as in vivo, human. The text has this: The objective of this study was to evaluate the efficacy and tolerability of the formulation as a prophylactic monotherapy in comparison with a placebo in patients having migraine. Patients were included in the study based on the following criteria: those aged between 15–60 years, diagnosed as having migraine as per International Headache Society Classification (IHSC) guidelines; those with at least two or more attacks of acute migraine per month for at least 6 months; women of child bearing age who take contraceptive measures during the study and those taking no other prophylactic therapy during the study period or alteast one month prior to the study. A detailed ENT examination was conducted prior to the study to rule out any nasal pathology. A written consent was taken from each patient.
Patients with more than 8 attacks a month, unstable angina, hypertension, cardiac failure, severe left ventricular failure, atrophic rhinitis, nasal polyposis, patients taking any prophylactic medication within 1 month of the study, patients with psychiatric disorders, pregnant/nursing women, patients with glaucoma and Parkinson's disease were excluded from the study.
This study, a multi-centric, randomised placebo controlled double blind (test formulation versus matched saline placebo) was conducted at five centres. A non-randomised single blind (test formulation versus flunarizine) study was conducted at two of the five centres. An internal crossover study was done at three of the five centres by cross over of patients in the test formulation and placebo groups.
The duration of study was eight months. The period of treatment was three months. Patients later on were crossed over internally (test formulation and placebo) for further treatment of three months and a follow-up period of two months. One drop of the test formulation was administered into each nostril two times a day, once in the morning and once in the evening. One drop of placebo was administrated into each nostril, once in the morning and once in the evening. flurnarizine tablet (10 mg) was administered once a day orally.
The enrolled patients underwent a general examination, E.N.T. examination and laboratory tests. Each patient was given a diary to record the details of the migraine, episodes, any adverse events(pre- and post-treatment) as well as details of rescue modification taken, if any. The same was also recorded by the investigator.
Patients were instructed on how to record the details of various visual symptoms, nausea, vomiting and headache (viz. time of onset, relief, and any additional treatment) and grade them according to severity (4 point scale) in diary. The recorded observations in the diary were reviewed every month of the study period.
The efficacy of the prophylactic treatment was evaluated on the following basis: • At least 50% reduction in the intensity or duration of migraine attacks (mean duration of migraine in hours) per month at the end of 12 weeks of treatment, compared to baseline. • Reduction in the frequency of attack per month using test formulation and flunarizine compared to placebo (>or =50%). • Consumption of drugs for symptomatic relief of breakthrough attacks in the three groups. • At least 50% or more reduction of attack in patients who respond to test formulation compared to the reduction of attack in patients given placebo. • The safety and patient compliance of test formulation was assessed on the basis of incidence and severity of side effects in each groups compared to placebo and number of drop outs in each group compared to placebo. Results
The results of the trial was statistically analysed based on the following parameters:
• 1. Atleast 50% reduction in the frequency of migraine attacks • 2. Atleast 50% reduction in the duration of migraine attacks • 3. Reduction in the severity of migraine attacks [graded as none (0), mild (1), moderate (2) and severe (3) • 4. […]

The next series relates to migraine attacks. Particulars: cited from earlier work.
Series [1] can be described thus: Colouration of the formulation on storage. Particulars: 3 months. It is filed as physicochemical. The text has this: To prevent any colouration during storage of the formulation it is preferable to add an anti-oxidant to prevent the colouration. Sodium metabisulfite is preferably used. When this anti-oxidant is not added the colour of the solution changes from initial colourless to straw yellow to dark yellow in one month's time and to dark brown in three months. Addition of sodium bisulfite arrests the change in colouration. This can be used in a concentration ranging from 0.020% to 0.080% wt/vol of the composition. A range of 0.04 to 0.05% being the most preferred
Tabulation of the colour change as a function of the concentration of the sodium meta bisulfite concentration is given below in Table-III.
The importance of purging the entire system with nitrogen reflects in the colouration to the product. When no nitrogen is bubbled in to the system the colour of the formulation changes to yellow within 3 months, indicating degradation. In batches where the system is constantly kept under nitrogen atmosphere, no change in colouration is observed even after 3 months.

A further series relates to nasal mucosa. The experiment in a line: Nasal mucosal irritation as a function of additives in the formulation. It is filed as in vivo. Particulars: used as the preservative of the aqueous formulation.
Where [2] appears, read: end of third follow-up, comparison with flunarizine.

On to `Fc1ccc(C(c2ccc(F)cc2)N2CCN(C/C=C/c3ccccc3)CC2)cc1` [Flunarizine, flunarizine], for which the “DROP OUT RATE (%)” value with patients having migraine (3 months treatment) came to 43%. Also, the “Reduction in mean frequency of attacks” value in the series on patients having migraine (at each follow-up) is “significant difference reduction in the mean frequency of attacks at the end each follow up”. The “Reduction in the duration of attacks” value with patients having migraine (at the follow-ups) was “significant reduction in the duration of attacks only at the end of the second and third follow-up”. Further, in the series on patients having migraine (end of third follow up, comparison with flunarizine), the “Patients with ≧50% REDUCTION IN DURATION” value is recorded as 52.0%. In addition, in the series with patients having migraine (setting [2]), the “Patients with ≧50% REDUCTION IN DISABILITY” value was 69.6% and the “Patients with ≧50% REDUCTION IN SEVERITY” value was 42.3%. Also, the “Patients with ≧50% REDUCTION IN FREQUENCY” value in the series on patients having migraine (third follow up, comparison with flunarizine) was determined as 81.5%.
For the molecule `CN1C[C@H](C(=O)N[C@]2(C)O[C@@]3(O)[C@@H]4CCCN4C(=O)[C@H](Cc4ccccc4)N3C2=O)C=C2c3cccc4[nH]cc(c34)C[C@H]21` [Ergotamine, Ergotamine tartrate], the “incidence of side effects” value with migraine attacks (over that observed on use of NSAIDs) is given as 17–41%.
Turning to `O=S([O-])S(=O)(=O)[O-].[Na+].[Na+]` [Sodium meta bisulfite], the Change in colour result in series [1] (sodium meta bisulfite 0.020 % w/v) was “Colourless→light brown (3 months)”; in series [1] (sodium meta bisulfite 0.040 % w/v), “Colourless→light Yellow (3 months)”; in series [1] (sodium meta bisulfite 0.050 % w/v), “Colourless→very light Yellow (3 months)”; in series [1] (sodium meta bisulfite 0.075 % w/v) it was “Remains Colourless (3 months)”; in series [1] (sodium meta bisulfite 0.080 % w/v), “Remains Colourless (3 months)”.
For `CNS(=O)(=O)Cc1ccc2[nH]cc(CCN(C)C)c2c1` [Sumatriptan, sumatriptan], the “relief to migraine attacks” value with migraine attacks (in one hour, placebo less than 27%) is on record as 70%.
benzalkonium chloride: the Mucosal irritation entry with nasal mucosa is listed as “causes mucosal irritation”.

Source of the values: patent US7632528B1, “Antimigraine combination comprising Sapindus and Emblica extracts” (Lupin Limited, priority 2000, dated 2009).
